Source: PubChem BioAssay (NCI)
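A five-concentration, 48-hour dose response in 96-well plates underlies each endpoint, interpolated linearly between surrounding concentrations. At the TGI there is no net growth.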

Columns and labels:
Experiment in all cases: NCI tumour cell line growth inhibition, 48 h
HOP-18 NSCLC = system: HOP-18 NSCLC
P388 leukemia = system: P388 leukemia
P388/ADR leukemia = system: P388/ADR leukemia
SN12K1 renal = system: SN12K1 renal

| SMILES | TGI (HOP-18 NSCLC) [µM] | other results |
| --- | --- | --- |
| CCC12C=CCN3CC[C@]4(C(=C(C(=O)OC)[C@@H]1Nc1ccn(C5OC(COC(C)=O)C(OC(C)=O)C5OC(C)=O)c(=O)n1)Nc1ccccc14)C32 (some centres undefined) | 14.1 |  |
| CCN(CC)CC(C)(C)C(=O)/C=C/c1ccc(C)cc1 | 23.6 |  |
| Cc1ccc(N2C(=O)/C(=c3\s/c(=C(/N)O)c(=N)n3-c3ccccc3)SC2=S)cc1 | > 100 |  |
| CC(C)NC(C)Cc1ccccc1 (centres undefined) | > 100 |  |
| CC(C)(C)C1CCC2c3c([nH]c4ccccc34)C3C(=O)N(c4ccc(Br)cc4)C(=O)C3C2C1 (centres undefined) | > 100 |  |
| Nc1nc(=O)n(C2OC(CO)C(O)C2O)cc1F (centres undefined) | > 100 | TGI (P388 leukemia): 0.0341 µM; TGI (P388/ADR leukemia): 0.182 µM; TGI (SN12K1 renal): > 100 µM |
| C[n+]1c2ccccc2c(NC(CCC(N)=O)C(=O)O)c2ccccc21 (centres undefined) | > 100 |  |
| CCOc1ccc(N=Cc2cc(OC)c(OC)c(OC)c2)cc1 | > 100 |  |
| C(/COc1cccnc1)=N\NC1=NCCN1 | > 100 |  |
| Cc1ccc(S(=O)(=O)C2=c3ncccc3=C3C(=O)c4ccccc4C(=O)C32)cc1 (centres undefined) | > 100 |  |
| Cc1ccc2c(c1)NC(=O)C(N=[N+]=[N-])(c1ccccc1)C2=O (centres undefined) | 88.3 |  |
